Experimental data: ChEMBL document CHEMBL1150634, “New dimeric macrolide glycosides from the marine sponge Myriastra clavosa” (J Nat Prod, 2002)
Active and inactive are the calls of the source.

Key:
Format in all cases: functional, cell-based
K562 = assay: Cytotoxicity against human K562 cells at 10 ug/mL after 2 days by XTT assay
MCF7 = assay: Cytotoxicity against human MCF7 cells at 10 ug/mL after 2 days by XTT assay
Malme-3M = assay: Cytotoxicity against human MALME-3M cells at 10 ug/mL after 2 days by XTT assay
LOX = assay: Cytotoxicity against human LOX cells at 10 ug/mL after 2 days by XTT assay
A549 = assay: Cytotoxicity against human A549 cells at 10 ug/mL after 2 days by XTT assay
COLO 205 = assay: Cytotoxicity against human COLO205 cells at 10 ug/mL after 2 days by XTT assay
OVACR3 = assay: Cytotoxicity against […] at 10 ug/mL after 2 days by XTT assay
MOLT-4 = assay: Cytotoxicity against human MOLT4 cells at 10 ug/mL after 2 days by XTT assay
SNB-19 = assay: Cytotoxicity against human SNB19 cells at 10 ug/mL after 2 days by XTT assay
NCI-H460 = assay: Cytotoxicity against human H460 cells at 10 ug/mL after 2 days by XTT assay

Measured: Activity

CO[C@@H]1[C@@H](OC)[C@H](O[C@H]2C[C@H]3C[C@@H]([C@H]4C[C@@H]4C)OC(=O)C[C@@H]4O[C@@H](C[C@H](O[C@@H]5OC[C@@H](OC)[C@H](OC)[C@H]5OC)[C@H]4C)C[C@@H]([C@H]4C[C@@H]4C)OC(=O)C[C@H](O3)[C@@H]2C)OC[C@H]1O
inactive: K562 | MCF7 | Malme-3M | LOX | A549 | COLO 205 | OVACR3 | MOLT-4 | SNB-19 | NCI-H460
